What all share (assay type): cell-based
Assay [1] relates to human small cell lung carcinoma (NYH) cell line. In words: Inhibition of tumour cell proliferation in vitro ([3H]thymidine incorporation), NYH. To be noted: NYH cells, cultured 24 hours with compound, DNA synthesis by [3H]thymidine incorporation. As to the method: (§1) The inhibition of tumour cell proliferation was studied using different types of human cancer cell lines. The cell lines under investigation were small cell lung carcinoma (NYH), non small cell lung carcinoma (NCI-H460), and breast cancer (MCF-7) using the following general procedure:
(§2) The cells were cultured in vitro for 24 hours in the presence of the compound under investigation. DNA synthesis was measured by incorporation of [3H]thymidine, and the median inhibitory concentrations (IC50) of the compounds were calculated.
In general terms: Incorporation of labelled thymidine or its analogues reports DNA synthesis.

The subject of assay [2] is human breast cancer (MCF-7) cell line. In words: Inhibition of tumour cell proliferation in vitro ([3H]thymidine incorporation), MCF-7. To be noted: MCF7, MCF-7 cells, cultured 24 hours with compound, DNA synthesis by [3H]thymidine incorporation. Here is the method:
as §1, §2

Assay [3] relates to human non small cell lung cancer (NCI-H460) cell line. In words: Inhibition of tumour cell proliferation in vitro ([3H]thymidine incorporation), NCI-H460. As to conditions: NCI-H460 cells, cultured 24 hours with compound, DNA synthesis by [3H]thymidine incorporation. Here is the method: as §1, §2

From patent US6346541B1, “Cyanoguanidines as cell proliferation inhibitors” (Leo Pharmaceutical Products Ltd. A/S, priority 1997, dated 2002) come the findings set out here.

Regarding `N#CNC(=Nc1ccncc1)NCCCCCCOC(=O)c1ccc(Cl)cc1` [Example No. 4, N-(6-(4-Chlorobenzoyloxy)hexyl)-N′-cyano-N″-4-pyridylguanidine], the IC50 (in general, the concentration at which inhibition is half-maximal) in assay [1] was 1.7 nM; in assay [2] it was 2.2 nM.
As for `N#CNC(=Nc1ccncc1)NCCCCCCNC(=O)c1ccccc1` [Example No. 2, N-(6-Benzoylaminohexyl)-N′-cyano-N″-4-pyridylguanidine], the half-inhibitory concentration (IC50) in assay [1] was determined as 6.2 nM; in assay [2], 57 nM; in assay [3], 66 nM.
